Laboratory results from the Bradley open melting point set (2014).
Where “and” joins values, the source holds several entries; their conditions need not be identical. Equal entries are not always repeated. Structures can show the parent of a compound that is named as a salt.

SMILES	melting point
CCCC(=O)c1ccccc1 [butyrophenone]	12 °C
Cn1c(=O)c2c(ncn2C)n(C)c1=O [caffeine] [listing 1 of 2 here]	238 °C (2×) and 235 °C (2×)
Cn1c(=O)c2c(ncn2C)n(C)c1=O [caffeine] [listing 2 of 2 here]	238 °C
C=C1[C@@H]2CC[C@@H](C2)C1(C)C [camphene]	35 °C
CC12CCC(CC1=O)C2(C)C (stereo unspecified) [camphor] [listing 1 of 2 here]	174 °C
CC12CCC(CC1=O)C2(C)C (stereo unspecified) [camphor] [listing 2 of 2 here]	177 °C
CC1(C)[C@@H]2CC[C@@]1(C)C(=O)C2 [camphor]	180 °C
CC12CCC(C(=O)C1=O)C2(C)C (stereo unspecified) [camphorquinone]	200 °C
NC(=O)N1c2ccccc2C=Cc2ccccc21 [carbamazepine]	192 °C
c1ccc2c(c1)[nH]c1ccccc12 [carbazole]	247 °C and 243 °C
NC(=O)CN1Cc2ccccc2OC1=O [caroxazone]	203 °C
Oc1ccccc1O [catechol] [listing 1 of 2 here]	105 °C
Oc1ccccc1O [catechol] [listing 2 of 2 here]	106 °C
CN(C)CCC(O)(c1ccccc1)c1ccccc1Cl (stereo unspecified) [chlophedianol]	120 °C
O=C(O)CCl [chloroacetic acid]	62 °C
O=C(Cl)CCl [chloroacetyl chloride]	-22 °C
ClC1CCCC1 [chlorocyclopentane]	-94 °C
CCCNC(=O)NS(=O)(=O)c1ccc(Cl)cc1 [chlorpropamide]	128 °C
CC(C)CCCC(C)C1CCC2C3CC=C4CC(O)CCC4(C)C3CCC12C (stereo unspecified) [cholest-5-en-3-ol]	148 °C
CCCCCCCCC(=O)O[C@H]1CC[C@@]2(C)C(=CC[C@H]3[C@@H]4CC[C@H]([C@H](C)CCCC(C)C)[C@@]4(C)CC[C@@H]32)C1 [cholesteryl nonanoate]	77 °C

SMILES	melting point
CCCCCCCCCCCCCCCCCC(=O)O[C@H]1CC[C@@]2(C)C(=CC[C@H]3[C@@H]4CC[C@H]([C@H](C)CCCC(C)C)[C@@]4(C)CC[C@@H]32)C1 [cholesteryl stearate]	80 °C
O=Cc1coc2ccccc2c1=O [chromone-3-carboxaldehyde]	152 °C
CNC(=NC#N)NCCSCc1nc[nH]c1C [cimetidine]	141 °C
OC/C=C/c1ccccc1 [cinnamyl alcohol]	34 °C
Cl/C=C\Cl [cis-1,2-dichloroethylene]	-80 °C
C/C=C\CCCCC [cis-2-octene]	-100 °C
C/C=C\CC [cis-2-pentene]	-151 °C
CC/C=C\CC [cis-3-hexene]	-138 °C
CCC/C=C\CCC [cis-4-octene]	-119 °C
C1=C\CCCCCC/1 [cis-cyclooctene]	-16 °C
C/C(=C/C(=O)NN)C(=O)NN [citraconic hydrazide]	286 °C
O=C(O)CC(O)(CC(=O)O)C(=O)O [citric acid anhydrous]	153 °C
O=C(O)CC(O)(CC(=O)O)C(=O)O [citric acid, anhydrous]	154 °C
COc1ccc2c(C(=O)c3ccc(Cl)cc3)c(C)n(CC(=O)O)c2c1 [clometacin]	242 °C
Clc1cccc(Cl)c1N=C1NCCN1 [clonidine]	130 °C
Clc2cccc(Cl)c2N=C1/NCCN1 [clonidine]	130 °C
CC(C)(C)NCC(O)COc1cc(Cl)ccc1Cl (stereo unspecified) [cloranolol]	82 °C
c1cc2ccc3ccc4ccc5ccc6ccc1c1c2c3c4c5c61 [coronene]	438 °C and 440 °C
O=C(CO)[C@@]3(O)CC[C@H]2[C@@H]4CC\C1=C\C(=O)CC[C@]1(C)[C@H]4C(=O)C[C@@]23C [cortisone]	222 °C and 226 °C (2×)
C[C@]12CCC(=O)C=C1CC[C@@H]1[C@@H]2C(=O)C[C@@]2(C)[C@H]1CC[C@]2(O)C(=O)CO [cortisone]	222 °C

SMILES	melting point
C/C=C/C=O [crotonaldehyde]	-76 °C
CC(C)c1ccccc1 [cumene]	-96 °C
N#CCC(N)=O [cyanoacetamide]	120 °C
Clc1nc(Cl)nc(Cl)n1 [cyanuric chloride]	147 °C
O=C=NC1CCCCC1 [cyclohexyl isocyanate]	-80 °C
CC(CN1CCOCC1)C(C(=O)N1CCCC1)(c1ccccc1)c1ccccc1 (stereo unspecified) [dextromoramide]	180 °C
CCCCOC(=O)c1ccccc1C(=O)OCCCC [di-n-butyl phthalate]	-35 °C
c1ccc2c(c1)sc1ccccc12 [dibenzothiophene]	99 °C
BrCBr [dibromomethane]	-53 °C
N#CNC(=N)N [dicyandiamide]	210 °C
C1CCC(C2CCCCC2)CC1 [dicyclohexyl]	4 °C
ClC5(Cl)[C@]3(Cl)C(\Cl)=C(\Cl)[C@@]5(Cl)[C@H]4[C@H]1C[C@H]([C@@H]2O[C@H]12)[C@@H]34 [dieldrin]	175 °C
Cl\C1=C(/Cl)C2(Cl)C3C4CC(C3C1(Cl)C2(Cl)Cl)C5OC45 (stereo unspecified) [dieldrin]	176 °C
CCOCC [diethyl ether]	-116 °C
CCOP(O)OCC [diethyl phosphite]	-70 °C
CCOC(=O)c1ccccc1C(=O)OCC [diethyl phthalate]	-64 °C
CCNCC [diethylamine]	-50 °C
OCCOCCO [diethylene glycol]	-10 °C
OCCN1CCCCC1C(c1ccccc1)c1ccccc1 (stereo unspecified) [diphemethoxidine]	106 °C
O=C(Oc1ccccc1)c1ccccc1C(=O)Oc1ccccc1 [diphenyl phthalate]	75 °C

Next, values leading:

melting point	SMILES
-90.7 °C	C1CCC1 [cyclobutane]
61 °C	C1CCCCCCCCCCC1 [cyclododecane]
78 °C	OC1CCCCCCCCCCC1 [cyclododecanol]
0 °C	C1=CCCCCCCCCCC1 [cyclododecene_(trans)]
135 °C	O=C(Nc1ccccc1)OC1C=CC=CCC1OC(=O)Nc1ccccc1 (stereo unspecified) [cyclohepta-3,5-diene-1,2-diyl bis(phenylcarbamate)]
174 °C	O=C(Nc1ccccc1)OC1CCCCCC1OC(=O)Nc1ccccc1 (stereo unspecified) [cycloheptane-1,2-diyl bis(phenylcarbamate)]
34.5 °C	O=CC1CCCCC1 [cyclohexanecarbaldehyde]
35 °C	O=CC1CCCCC1 [cyclohexanecarboxaldehyde]
25.9 °C	OC1CCCCC1 [cyclohexanol] [listing 1 of 2 here]
24 °C	OC1CCCCC1 [cyclohexanol] [listing 2 of 2 here]
89 °C	ON=C1CCCCC1 [cyclohexanone oxime]
-104 °C	C1=CCCCC1 [cyclohexene]
-18 °C	NC1CCCCC1 [cyclohexylamine] [listing 1 of 2 here]
-17 °C and -17.7 °C	NC1CCCCC1 [cyclohexylamine] [listing 2 of 2 here]
15 °C	C1CCCCCCC1 [cyclooctane]
15 °C	OC1CCCCCCC1 [cyclooctanol]
41 °C	O=C1CCCCCCC1 [cyclooctanone]
62 °C	C1CCCCCCCCCCCCCC1 [cyclopentadecane]
-7 °C	O=C(O)C1CCCC1 [cyclopentanecarboxylic acid]
-127 °C	C1CC1 [cyclopropane]
158 °C	Cc1ccccc1N1CCN(CCc2nnc3n2CCCC3)CC1 [dapiprazole]
-5 °C	CCCCCCCCCC=O [decanal]
-14 °C	CCCCCCCCCCc1ccccc1 [decylbenzene]
174 °C	C[C@H](CCC(=O)O)[C@H]1CC[C@H]2[C@@H]3CC[C@@H]4C[C@H](O)CC[C@]4(C)[C@H]3C[C@H](O)[C@]12C [deoxycholic acid]
-80 °C	CCCCSCCCC [di-n-butyl sulfide]
1 °C	CCCCCCCCSCCCCCCCC [di-n-octyl sulfide]

melting point	SMILES
-102 °C	CCCSCCC [di-n-propyl sulfide]
162 °C	O=c1[nH]cnc2c1ncn2[C@H]1CC[C@@H](CO)O1 [didanosine]
140 °C	CCOC(=O)c1sc2sc(C(=O)OCC)c(C)c2c1C [diethyl 3,4-dimethylthieno[2,3-b]thiophene-2,5-dicarboxylate]
-43 °C	CCOC(=O)OCC [diethyl carbonate]
-70 °C	CCOC(=O)C(=O)C(=O)OCC [diethyl ketomalonate]
-50 °C	CCOC(=O)CC(=O)OCC [diethyl malonate]
-104 °C	CCSCC [diethyl sulfide]
-64 °C	COCCOCCOC [diethylene glycol dimethyl ether]
-132 °C	CC[SiH2]CC [diethylsilane]
178 °C	CC/C(=C(/CC)c1ccc(O)cc1)c1ccc(O)cc1 [diethylstilbestrol]
4 °C	CC(C)OC(=O)/N=N/C(=O)OC(C)C [diisopropyl azodicarboxylate]
90 °C	COC(=O)c1c(C)nn(C(=O)OC)c1C [dimethyl 3,5-dimethyl-1H-pyrazole-1,4-dicarboxylate]
-19 °C	COC(=O)/C=CC(=O)OC [dimethyl maleate]
-62 °C	COC(=O)CC(=O)OC [dimethyl malonate]
75 °C	COC(=O)c1ncoc1C(=O)OC [dimethyl oxazole-4,5-dicarboxylate]
162 °C	COC(=O)c1ccc(C(=O)OC)nc1 [dimethyl pyridine-2,5-dicarboxylate]
121 °C	COC(=O)c1cccc(C(=O)OC)n1 [dimethyl pyridine-2,6-dicarboxylate]
27 °C	COC(=O)CCCCCCCCC(=O)OC [dimethyl sebacate]
19 °C	COC(=O)CCC(=O)OC [dimethyl succinate]
110 °C	CS(C)(=O)=O [dimethyl sulfone]
142 °C	COC(=O)c1ccc(C(=O)OC)cc1 [dimethyl terephthalate]
157 °C	COC(=O)c1c(Cl)c(Cl)c(C(=O)OC)c(Cl)c1Cl [dimethyl tetrachloroterephthalate]
3 °C	COC(=O)OC [dimethyl_carbonate]
-98 °C	CSC [dimethyl_sulfide]
-61 °C	CN(C)C=O [dimethylformamide]
